Data as given in patent US12617804B2, “Conjugation-fused bipolar redox-active molecule, preparation method, and application thereof” (Hangzhou Normal University, priority 2021, dated 2026).

Tests used:
[1] = Cyclic voltammetry (CV), TBA-TFSI supporting electrolyte in acetonitrile; assay type: physicochemical
Procedure: Redox kinetics of QPT-OMe obtained in Embodiment 1 is tested by cyclic voltammetry (CV). Tetrabutylammonium bis(trifluoromethylsulfonyl)imide (TBA-TF SI) is used as a supporting electrolyte and acetonitrile as a solvent. The results are shown in FIG. 3, where two pairs of symmetrical cathodic and anodic peaks can be clearly observed. The half-wave potentials of −2.04 and 0.72 V (with respect to Ag^+/Ag) correspond to the reduction and oxidation reactions of QPT-OMe, respectively. The open-circuit voltage is about 2.76 V when using QPT-OMe as the active material in the RFB, which is one of the highest value for bipolar molecules so far.
Furthermore, the QPT-OMe/QPT-OMe and QPT-P-OMe/QPT-OMe redox pairs show high rate constants of 1.4×10^−2 and 1.6×10-2 cm s^−1, respectively, by calculation. This is probably due to the relatively low recombination energy required for single electron transfer to occur from a large off-domain π-conjugated system. The high rate constants also imply negligible voltage loss when electrochemical reactions occur at the electrode surface.
The redox kinetics of QPT-TEG obtained in Embodiment 4 is tested by cyclic voltammetry (CV). Tetrabutylammonium bis(trifluoromethylsulfonyl)imide (TBA-TF SI) is used as a supporting electrolyte and acetonitrile as a solvent.

[2] = Miscibility of QPT-TEG with polar organic solvents; assay type: physicochemical; conditions: acetonitrile, dimethyl sulfoxide, dichloromethane and other solvents, in any ratio
Text: The bipolar redox-active molecule with the above structure (QPT-TEG) is a […] fluid that is miscible with most polar organic solvents. QPT-TEG is able to increase the overall solubility of the molecule by introducing long ether chains without changing the redox potential of the designed redox subject molecule.

[3] = with respect to Ag+/Ag, TBA-TFSI, acetonitrile

Row | electrochemical window [1] [V] | open-circuit voltage as active material in the RFB ([1]; from the two half-wave potentials) | half-wave potential, oxidation reaction [1, 3] [V] | half-wave potential, reduction reaction [1, 3] [V] | miscibility with solvents [2] | redox behavior in CV ([1]; compared with QPT-OMe, FIG. 5) | Compound | rate constant, QPT-OMe/QPT-OMe redox pair ([1]; first-named redox pair, by calculation) [cm/s]
1 | ~3 | about 2.76 V | 0.72 | −2.04 |  |  | COc1ccc2c(c1)c(=O)c1cccc3c1n2-c1ccccc1S3 [QPT-OMe] | 0.014
2 |  |  |  |  | miscible | basically the same as that of QPT-OMe | COCCOCCOCCOc1ccc2c(c1)c(=O)c1cccc3c1n2-c1ccccc1S3 [QPT-TEG] | 
